The results in this text go back to BindingDB's records for doi:10.1021/jm980260f (Sapienza University of Rome, 1999).

Structures are written as SMILES. pIC50: −log10 of the molar value.

For this test, the target named is T1, Gag-Pol polyprotein [588-1027]/[588-1147] (Human immunodeficiency virus 1, UniProt P04585).
T1 construct: 588-1027; 588-1147
Kind of test: HIV-1 RT Assay. The following applies: pH 7.8; 37 °C.

In general, pIC50 refers to −log10 of the IC50, conventionally taken in molar units. Read a low pIC50 as a large IC50. `CCC(C)Sc1nc(O)cc(Cc2c(Cl)cccc2Cl)n1` (stereo unspecified) [2-(butan-2-ylsulfanyl)-6-[(2,6-dichlorophenyl)methyl]-3,4-dihydropyrimidin-4-one] gave a pIC50 of 7.00.
